Measured values taken from patent US5073493A, “Monoclonal antibody NKY13” (Ikuo Yamashina, priority 1987, dated 1991).

Key:
[1] = target: binding of the NKY13 to G-50I; experiment: Inhibition of the binding of NKY13 to G-50I by sugar chains; parameters: species or system mouse; details: inhibition of binding of NKY13 to G-50I by the sugar chain
Description: Bovine serum albumin (1%) is added to wells of poly(vinyl chloride) on which, through the mediation of polylysine and glutaraldehyde, is immobilized mucin-type glycopeptide (G-50I) that is isolated from human intestinal cancer cells SW1116 or LS180. After allowing it to stand for 1 hr, the wells are washed, and then a monoclonal antibody NKY13 is added thereto and allowed to react overnight. After washing the wells, Protein A labelled with ^125 I is added, which is allowed to react for 2 hr. After washing the wells, the affinity of NKY13 is measured, taking as index the radioactivity of ^125 I combined with the well.
(§1) Structure of sugar chains recognized by monoclonal antibody NKY13 was investigated on the basis of the inhibition of the binding of the NKY13 to G-50I by the following sugar chains according to the above method. The same test was performed on NS19-9.

[2] = target: NS19-9; experiment: Inhibition of NS19-9 binding by sugar chains (same test performed on NS19-9); details: read-out: 50% INHIBITION (μM) NS19-9
Description: as §1

Row | Compound | IC50 [1] | IC50 [2]
1 | CC(=O)N[C@H]1[C@H](O[C@H]2[C@@H](O)[C@@H](CO)O[C@@H](O[C@H]3[C@H](O)[C@@H](O)C(O)O[C@@H]3CO)[C@@H]2O)O[C@H](CO)[C@@H](O[C@@H]2O[C@@H](C)[C@@H](O)[C@@H](O)[C@@H]2O)[C@@H]1O[C@@H]1O[C@H](CO)[C@H](O)[C@H](O[C@]2(C(=O)O)C[C@H](O)[C@@H](NC(C)=O)[C@H]([C@H](O)[C@H](O)CO)O2)[C@H]1O (stereo partly shown) | 1.86 µM | 11.1 µM
2 | CC(=O)N[C@H]1[C@H](O[C@H]2[C@@H](O)[C@@H](CO)O[C@@H](O[C@H]3[C@H](O)[C@@H](O)C(O)O[C@@H]3CO)[C@@H]2O)O[C@H](CO[C@]2(C(=O)O)C[C@H](O)[C@@H](NC(C)=O)[C@H]([C@H](O)[C@H](O)CO)O2)[C@@H](O)[C@@H]1O[C@@H]1O[C@H](CO)[C@H](O)[C@H](O[C@]2(C(=O)O)C[C@H](O)[C@@H](NC(C)=O)[C@H]([C@H](O)[C@H](O)CO)O2)[C@H]1O (stereo partly shown) | 320 µM | 3550 µM
3 | CC(=O)N[C@H]1[C@H](O[C@H]2[C@@H](O)[C@@H](CO)O[C@@H](O[C@H]3[C@H](O)[C@@H](O)C(O)O[C@@H]3CO)[C@@H]2O)O[C@H](CO)[C@@H](O)[C@@H]1O[C@@H]1O[C@H](CO)[C@H](O)[C@H](O[C@]2(C(=O)O)C[C@H](O)[C@@H](NC(C)=O)[C@H]([C@H](O)[C@H](O)CO)O2)[C@H]1O (stereo partly shown) | 320 µM | 3550 µM
4 | CC(=O)N[C@H]1[C@H](O[C@H]2[C@@H](O)[C@@H](CO)O[C@@H](O[C@H]3[C@H](O)[C@@H](O)C(O)O[C@@H]3CO)[C@@H]2O)O[C@H](CO[C@]2(C(=O)O)C[C@H](O)[C@@H](NC(C)=O)[C@H]([C@H](O)[C@H](O)CO)O2)[C@@H](O)[C@@H]1O[C@@H]1O[C@H](CO)[C@H](O)[C@H](O)[C@H]1O (stereo partly shown) | > 10000 µM | > 10000 µM
5 | CC(=O)N[C@H]1[C@H](O[C@H]2[C@@H](O)[C@@H](CO)O[C@@H](O[C@H]3[C@H](O)[C@@H](O)C(O)O[C@@H]3CO)[C@@H]2O)O[C@H](CO)[C@@H](O[C@@H]2O[C@@H](C)[C@@H](O)[C@@H](O)[C@@H]2O)[C@@H]1O[C@@H]1O[C@H](CO)[C@H](O)[C@H](O)[C@H]1O (stereo partly shown) | > 10000 µM | 2320 µM
6 | CC(=O)N[C@H]1[C@H](O[C@H]2[C@@H](O)[C@@H](CO)O[C@@H](O[C@H]3[C@H](O)[C@@H](O)C(O)O[C@@H]3CO)[C@@H]2O)O[C@H](CO)[C@@H](O[C@@H]2O[C@@H](C)[C@@H](O)[C@@H](O)[C@@H]2O)[C@@H]1O[C@@H]1O[C@H](CO)[C@H](O)[C@H](O)[C@H]1O[C@@H]1O[C@@H](C)[C@@H](O)[C@@H](O)[C@@H]1O (stereo partly shown) | > 10000 µM | > 10000 µM
7 | CC(=O)N[C@H]1[C@H](O[C@H]2[C@@H](O)[C@@H](CO)O[C@@H](O[C@H]3[C@H](O)[C@@H](O)C(O)O[C@@H]3CO)[C@@H]2O)O[C@H](CO)[C@@H](O)[C@@H]1O[C@@H]1O[C@H](CO)[C@H](O)[C@H](O)[C@H]1O (stereo partly shown) | > 10000 µM | > 10000 µM
8 | CC(=O)N[C@H]1[C@H](O[C@H]2[C@@H](O)[C@@H](CO)O[C@@H](O[C@H]3[C@H](O)[C@@H](O)C(O)O[C@@H]3CO)[C@@H]2O)O[C@H](CO)[C@@H](O[C@@H]2O[C@H](CO)[C@H](O)[C@H](O)[C@H]2O)[C@@H]1O[C@@H]1O[C@@H](C)[C@@H](O)[C@@H](O)[C@@H]1O (stereo partly shown) | > 10000 µM | > 10000 µM
9 | C[C@@H]1OC(O)[C@@H](O)[C@H](O)[C@@H]1O (stereo partly drawn) [L-Fucose] | > 10000 µM | 14000 µM
10 | CC(=O)N[C@H]1[C@H]([C@H](O)[C@H](O)CO)OC(O)(C(=O)O)C[C@@H]1O (stereo partly shown) [NeuAc] | 9000 µM | > 10000 µM
11 | O=C(CO)N[C@H]1[C@H]([C@H](O)[C@H](O)CO)OC(O)(C(=O)O)C[C@@H]1O (stereo partly shown) [NeuGc] | 9000 µM | > 10000 µM
